Paper doi:10.1101/2025.08.13.670122v1 (bioRxiv, 2025)

What was measured:
Plasma stability = type: in vitro ADME; details: male Sprague-Dawley rat plasma, 6 μL of 1 mM compound (10% DMSO) in 27 μL plasma, 37°C, 0-24 h, UPLC-MS, one-phase decay, mean ± SEM of at least three experiments, read-out: Plasmatic half-life t1/2 (±SEM)
Experimental: The degradation was quenched by adding 140 μL of 1% formic acid in an acetonitrile-ethanol (1:1) solution containing 0.25 mM of N,N-dimethylbenzamide (used as an internal standard). This mixture was initially transferred to an Impact Protein Precipitation filter plate (Phenomenex, California), the filtrates from which were subsequently collected in a second 96-well UPLC plate. Both plates were centrifuged at 500 g for 10 min while maintaining a temperature of 4°C. The filtrates were then diluted with 30 μL of distilled water and processed for analysis using an Acquity UPLC-MS system class H (using an Acquity UPLC protein BEH C18 column that measured 2.1 mm × 50 mm and had 1.7 μm particles with pores 130 Å in width). The peptide half-life, derived from the degradation curve, was calculated using the exponential one-phase decay function in GraphPad Prism 9. Degradation was estimated by comparing the mass spectrum at each point with those at the zero-minute mark. The data were presented as a mean ± SEM of at least three unique experiments, each performed in singlicate.

AT1R = molecular target: T1, AT1R (Homo sapiens, UniProt P30556); experiment: Gαq activation BRET (GABY sensor) in HEK293 cells expressing AT1R; type: cell-based; parameters: expressed in transfected cells; host or cells: HEK293 cells, transient PEI transfection; details: for Emax Gαq (% AngII): HEK293/AT1R, GABY BRET sensor, response of the ligand at 10 μM, normalised to AngII; for EC50: HEK293 cells transiently expressing human AT1R, Gαq-RlucII/Gβ1/Gγ1-GFP10 (GABY) BRET sensor, BRET read 10 min after ligand, mean ± SEM of at least three to five independent experiments
T1 sequence (P30556 1-359): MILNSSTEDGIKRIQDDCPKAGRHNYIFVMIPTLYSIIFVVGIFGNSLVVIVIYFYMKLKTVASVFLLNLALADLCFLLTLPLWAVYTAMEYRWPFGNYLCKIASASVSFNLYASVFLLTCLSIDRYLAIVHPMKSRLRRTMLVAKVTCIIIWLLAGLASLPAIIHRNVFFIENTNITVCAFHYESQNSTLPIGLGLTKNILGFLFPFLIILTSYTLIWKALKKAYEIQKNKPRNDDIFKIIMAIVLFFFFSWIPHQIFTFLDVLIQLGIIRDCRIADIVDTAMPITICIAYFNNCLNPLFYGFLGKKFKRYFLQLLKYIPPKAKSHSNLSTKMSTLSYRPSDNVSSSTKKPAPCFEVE
Text: We utilized a clonal cell line HEK293, referred to hereafter as HEK293 cells, which has been previously described.[7],[8] As a gracious gift from A. Inoue (Tohoku University, Sendai, Miyagi, Japan), CRISPR Gαq/11 and Gα12/13 knockout cell lines (ΔGq/11 and ΔG12/13, respectively), were derived as previously explained.[48] In brief, a CRISPR-Cas9 system was used to target either GNAQ and GNA11 or GNA12 and GNA13 genes in HEK293T cells simultaneously to generate the Gαq/11 and Gα12/13 knockout cell lines. For the production of adenovirus, we utilized HEK293A cells. All cells were grown in DMEM supplemented with 10% FBS and Penicillin-Streptomycin-L-Glutamine (10000 IU penicillin, 10000 µg/mL Streptomycin, 200 mM L-Glutamine) at 37°C in T175 flasks under a 5% CO2 humidified chamber. Periodic testing was carried out for mycoplasma contamination (ABM™, Mycoplasma PCR Detection kit). For all biosensors used, cells underwent transfection with the PEI reagent, employing a PEI:DNA ratio of 3:1. For the Gαq biosensor, HEK293 cells were transfected with the plasmids coding for Gαq-RLucII (120 ng), Gβ1 (3000 ng), Gγ1-GFP10 (3000 ng), human AT1 (3000 ng) and Salmon sperm DNA (SSD) (880 ng). For the β-arrestin2 recruitment assay, HEK293 cells were transfected with the plasmids coding for 120 ng β-arrestin-2-RLucII, 3000 ng AT1, 3000 ng rGFP-CAAX, and 3880 ng SSD. For the measurement of PKC, HEK293 cells were transfected with 3000 ng AT1, 600 ng PKC-c1b, and 6400 ng SSD. […] 100 µL of the cell/DNA mixture was added to white 96-well plates and incubated at 37°C at 5% CO2 for 48 h. For the Rho assay, ΔG12/13 cells were seeded at a density of 9,000 cells per well in poly-ornithine-coated white 96-well plates and transfected the following day. In brief, 1 μg of total DNA in 100 μL of PBS was mixed with 100 μL of PBS containing 3 μL of 1 mg/mL PEI. For Rho signaling, 150 ng of AT1R DNA with 25 ng of PKN-RBD-RlucII [8], and 100 ng of rGFP-CAAX were used. Empty pcDNA was used to reach 1 µg of the total DNA amount in 100 μL of PBS. The DNA was then mixed with 100 μL of PBS containing 3 μL of 1 mg/mL PEI. After a 20-min incubation, the DNA/PEI complexes were dispensed into cells in 96-well plates (15 µL/well), and the experiment was carried out 48 h post-transfection.
On the day of the experiment, each well was washed with 80 µL of Tyrode’s buffer (140 mM NaCl, 2.7 mM KCl, 1 mM CaCl2, 12 mM NaHCO3, 5.6 mM D-glucose, 0.5 mM MgCl2, 0.37 mM NaH2PO4, 25 mM Hepes (pH 7.4)). This was followed by incubation for 1 h in Tyrode’s buffer at room temperature. For the Gαq, β-arrestin-2, and PKC biosensors used in HEK293 cells, coelenterazine 400A (at a final concentration of 5 μM) was added 10 min before stimulation. Cells were then stimulated with increasing doses of the indicated ligand, and BRET signals were measured using a Tristar2 (Berthold) microplate reader 10 min later. For the PKC and Rho biosensors in VSMCs, and the Rho biosensor in ΔG12/13 cells, cells were similarly stimulated with ligands for 1 min, 1 min 30 s, and 3 min, respectively, before BRET measurement. […] BRET signals were then measured using a Synergy2 (BioTek) microplate reader. The applied filter set was 410/80 nm and 515/30 nm, designed to detect the light emissions of RlucII (Renilla luciferase) (donor) and rGFP (acceptor), respectively.

| half-life at 182 µM (Plasma stability) | Emax Gαq (% AngII) (AT1R) | EC50 (AT1R; SEM) | EC50 (AT1R) | SMILES |
| --- | --- | --- | --- | --- |
| 33 ± 4 min | 113 % AngII | 1.1 ± 0.4 nM |  | CC[C@H](C)[C@H](NC(=O)[C@H](Cc1ccc(O)cc1)NC(=O)[C@@H](NC(=O)[C@H](CCCNC(=N)N)NC(=O)[C@@H](N)CC(=O)O)C(C)C)C(=O)N[C@@H](Cc1c[nH]cn1)C(=O)N1CCC[C@H]1C(=O)N[C@@H](Cc1ccc(OC)cc1)C(=O)O [compound 11] |
| 32 ± 3 min | 11 % AngII |  | > 10000 nM | CC[C@H](C)[C@H](NC(=O)[C@H](Cc1ccc(O)cc1)NC(=O)[C@@H](NC(=O)[C@H](CCCNC(=N)N)NC(=O)[C@@H](N)CC(=O)O)C(C)C)C(=O)N[C@@H](Cc1c[nH]cn1)C(=O)N1CCC[C@H]1C(=O)N[C@@H](Cc1ccc(OCc2ccccc2)cc1)C(=O)O [compound 12] |
